Assay results: BindingDB's records for PubMed 1836757 (University of Heidelberg, 1991)

Target: 5-hydroxytryptamine receptor 1A/1B/1D/2C (Homo sapiens, UniProt P08908+P28221+P28222+P28335)
Sequence (P08908 whole entry): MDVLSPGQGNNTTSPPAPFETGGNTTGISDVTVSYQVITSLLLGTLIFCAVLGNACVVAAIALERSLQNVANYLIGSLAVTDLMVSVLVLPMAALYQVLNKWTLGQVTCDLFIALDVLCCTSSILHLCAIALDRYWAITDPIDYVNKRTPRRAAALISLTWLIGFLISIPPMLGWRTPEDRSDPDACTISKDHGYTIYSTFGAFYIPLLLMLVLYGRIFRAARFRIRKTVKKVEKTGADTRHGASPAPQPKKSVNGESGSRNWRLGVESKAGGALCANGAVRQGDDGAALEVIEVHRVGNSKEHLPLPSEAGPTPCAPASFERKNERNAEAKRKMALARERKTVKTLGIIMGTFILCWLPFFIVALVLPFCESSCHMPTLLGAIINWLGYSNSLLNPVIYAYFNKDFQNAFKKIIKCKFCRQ
Sequence (P28222 whole entry): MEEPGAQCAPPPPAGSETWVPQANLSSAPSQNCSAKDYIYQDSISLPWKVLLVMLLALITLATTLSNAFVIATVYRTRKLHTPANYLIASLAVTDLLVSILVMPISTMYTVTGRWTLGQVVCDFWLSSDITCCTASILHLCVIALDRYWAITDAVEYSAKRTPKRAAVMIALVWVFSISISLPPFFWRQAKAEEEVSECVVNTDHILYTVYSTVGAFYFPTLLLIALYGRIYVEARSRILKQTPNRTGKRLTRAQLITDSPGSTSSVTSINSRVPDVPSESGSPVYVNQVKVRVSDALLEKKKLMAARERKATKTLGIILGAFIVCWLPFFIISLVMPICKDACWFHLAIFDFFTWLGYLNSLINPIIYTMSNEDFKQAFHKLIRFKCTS
Sequence (P28221 whole entry): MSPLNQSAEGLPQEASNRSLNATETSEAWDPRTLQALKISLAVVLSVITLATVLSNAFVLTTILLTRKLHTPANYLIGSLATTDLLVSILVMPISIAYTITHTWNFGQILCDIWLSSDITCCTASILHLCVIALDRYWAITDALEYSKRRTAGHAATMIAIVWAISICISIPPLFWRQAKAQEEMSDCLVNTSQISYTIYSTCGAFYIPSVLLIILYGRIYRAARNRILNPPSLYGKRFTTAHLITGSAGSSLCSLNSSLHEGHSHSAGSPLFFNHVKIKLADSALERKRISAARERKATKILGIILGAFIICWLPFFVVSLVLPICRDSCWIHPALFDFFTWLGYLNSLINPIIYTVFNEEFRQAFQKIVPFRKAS
Sequence (P28335 whole entry): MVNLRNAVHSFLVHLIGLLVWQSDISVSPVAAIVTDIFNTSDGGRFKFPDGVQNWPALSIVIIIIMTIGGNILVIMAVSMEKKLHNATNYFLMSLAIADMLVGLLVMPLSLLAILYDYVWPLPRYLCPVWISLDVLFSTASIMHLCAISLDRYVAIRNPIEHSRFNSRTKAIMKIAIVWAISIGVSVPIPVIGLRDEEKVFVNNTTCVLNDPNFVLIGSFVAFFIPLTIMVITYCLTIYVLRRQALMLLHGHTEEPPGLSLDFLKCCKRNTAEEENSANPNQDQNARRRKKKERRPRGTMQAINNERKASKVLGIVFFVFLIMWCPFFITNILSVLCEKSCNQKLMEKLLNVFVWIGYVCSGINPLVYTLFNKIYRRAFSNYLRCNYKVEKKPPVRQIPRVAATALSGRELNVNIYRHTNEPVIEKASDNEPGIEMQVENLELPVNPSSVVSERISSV

SMILES	Ki
CN1C2CCC1CC(OC(=O)c1c[nH]c3ccccc13)C2 (configuration not stated)	> 10 µM
CC[C@@H](CO)NC(=O)[C@@H]1C=C2c3cccc4c3c(cn4C)C[C@H]2N(C)C1	0.436 µM
